Like-named read-outs stand apart in the source and are kept apart here.
Key:
Format in all cases: in vivo
[1] = test system: Spodoptera littoralis; experiment: Example B1: Action against Spodoptera littoralis (sprayed soybean plants); conditions: 72 h, read-out: reduction in the pest population (% activity)
Procedure: Young soybean plants are sprayed with an aqueous emulsion spray mixture comprising 12.5 ppm of test compound and, after the spray-coating has dried, the plants are populated with 10 caterpillars of Spodoptera littoralis in the first stage and then placed in a plastics container. 3 days later, the percentage reduction in population and the percentage reduction in feeding damage (% activity) are determined by comparing the number of dead caterpillars and the feeding damage on the treated plants with that on untreated plants.

[2] = test system: Plutella xylostella; experiment: Example B4: Action against Plutella xylostella caterpillars (sprayed cabbage plants); conditions: 72 h, read-out: reduction in the pest population (% activity)
Procedure: Young cabbage plants are sprayed with an aqueous emulsion spray mixture comprising 12.5 ppm of test compound. After the spray-coating has dried, the cabbage plants are populated with 10 caterpillars of Plutella xylostella in the first stage and placed in a plastics container. Evaluation is made 3 days later. The percentage reduction in population and the percentage reduction in feeding damage (% activity) are determined by comparing the number of dead caterpillars and the feeding damage on the treated plants with that on the untreated plants.

[3] = test system: Diabrotica balteata; experiment: Example B6: Action against Diabrotica balteata (sprayed maize seedlings); conditions: 144 h, read-out: reduction in the pest population (% activity)
Procedure: Maize seedlings are sprayed with an aqueous emulsion spray mixture comprising 12.5 ppm of the test compound and, after the spray-coating has dried, the maize seedlings are populated with 10 Diabrotica balteata larvae in the second stage and then placed in a plastics container. 6 days later, the percentage reduction in population (% activity) is determined by comparing the number of dead larvae on the treated plants with that on untreated plants.

[4] = test system: Tetranychus urticae; experiment: Example B7: Action against Tetranychus urticae (sprayed bean plants); conditions: 144 h, read-out: reduction in the pest population (% activity)
Procedure: Young bean plants are populated with a mixed population of Tetranychus urticae and sprayed one day later with an aqueous emulsion spray mixture comprising 12.5 ppm of test compound. The plants are incubated for 6 days at 25° C. and subsequently evaluated. The percentage reduction in population (% activity) is determined by comparing the number of dead eggs, larvae and adults on the treated plants with that on untreated plants.

[5] = 12.5 ppm spray on young soybean plants, first-stage caterpillars, evaluated 3 days later vs untreated plants
[6] = 12.5 ppm spray on young cabbage plants, first-stage caterpillars, evaluated 3 days later
[7] = 12.5 ppm spray on maize seedlings, second-stage larvae, evaluated 6 days later
[8] = 12.5 ppm spray on young bean plants, mixed population, 6 days at 25° C.

Measured: inhibition at 12.5 ppm

O=C(O)c1ccccc1-c1ccccc1 [B.11, 2-phenyl-benzoic acid]
> 80%: [1]; [5] | [2]; [6] | [3]; [7] | [4]; [8]

Cc1ccc(C(=O)O)cc1 [B.32, p-toluic acid]
> 80%: [1]; [5] | [2]; [6] | [3]; [7] | [4]; [8]

O=C(O)c1cccc(F)c1 [B.41, 3-fluoro-benzoic acid]
> 80%: [1]; [5] | [2]; [6] | [3]; [7] | [4]; [8]

Cc1ccc(C)c(C(=O)O)c1 [B.44, 2,5-dimethyl-benzoic acid]
> 80%: [1]; [5] | [2]; [6] | [3]; [7] | [4]; [8]

O=C(O)CCCOc1ccccc1 [B.70, 4-phenoxy-butyric acid]
> 80%: [1] | [2] | [3] | [4]

CC(C)(C)c1ccc(C(=O)O)cc1 [B.71, 4-tert-butyl-benzoic acid]
> 80%: [1]; [5] | [2]; [6] | [3]; [7] | [4]; [8]

O=C(O)c1ccc(O)cc1O [B.82, 2,4-dihydroxy-benzoic acid]
> 80%: [1]; [5] | [2]; [6] | [3]; [7] | [4]; [8]
